Reference: patent US20240343733A1, “COMPOUNDS FOR TARGETING DEGRADATION OF IRAK4 PROTEINS” (BIOGEN MA INC., priority 2021, published 2024)

biological target: T1, IRAK4 (Homo sapiens, UniProt Q9NWZ3); assay: IRAK4 Degradation Assay, HiBiT Method; format: cell-based; details: 293T cells expressing HiBiT-tagged IRAK4, 6 hours
T1 construct: 293Tcells expressing HiBiT-tagged IRAK4 were then added into 384-well plates
T1 sequence (Q9NWZ3 1-460): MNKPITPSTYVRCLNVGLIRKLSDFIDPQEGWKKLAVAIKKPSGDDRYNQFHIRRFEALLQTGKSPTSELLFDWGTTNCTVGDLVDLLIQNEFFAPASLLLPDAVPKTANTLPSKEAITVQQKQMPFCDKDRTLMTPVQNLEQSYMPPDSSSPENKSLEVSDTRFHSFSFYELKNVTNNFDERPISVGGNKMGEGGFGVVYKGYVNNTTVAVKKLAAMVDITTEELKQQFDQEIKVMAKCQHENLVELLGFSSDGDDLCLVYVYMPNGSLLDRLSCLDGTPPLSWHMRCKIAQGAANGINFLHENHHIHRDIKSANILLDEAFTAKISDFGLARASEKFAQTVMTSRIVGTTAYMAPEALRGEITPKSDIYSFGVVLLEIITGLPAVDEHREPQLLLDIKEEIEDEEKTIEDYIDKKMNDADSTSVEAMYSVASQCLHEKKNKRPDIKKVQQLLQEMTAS
Method in brief: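 Luminescent read-out with Nano-Glo HiBiT lytic reagent after 6 h compound exposure at 37 °C. Cells were HiBiT-IRAK4 knock-in 293T (C-terminal tag), 10,000 per well. Compounds ran as 11-point half-log dilutions from […] highest dose, duplicate wells; DMSO served as negative control.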

DC50	Compound
10 to 100 nM	CC(C)Oc1cc2nc(C3CCN(C(=O)CN4CCC(c5cc(F)c(C6CCC(=O)NC6=O)cc5F)CC4)CC3)cn2cc1C(=O)Nc1cnn2cccnc12 (centres unmarked) [Example 77, 2-[1-[2-[4-[4-(2,6-dioxo-3-piperidyl)-2,5-difluoro-phenyl]-1-piperidyl]acetyl]-4-piperidyl]-7-isopropoxy-N-pyrazolo[1,5-a]pyrimidin-3-yl-imidazo[1,2-a]pyridine-6-carboxamide]
10 to 100 nM	CC(C)Oc1cc2nc(C3CCN(C(=O)CN4CCC(c5ccc6c(C7CCC(=O)NC7=O)nn(C)c6c5)C(F)(F)C4)CC3)cn2cc1C(=O)Nc1cccc(C(F)F)n1 (centres unmarked) [Example 78, N-[6-(difluoromethyl)-2-pyridyl]-2-[1-[2-[4-[3-(2,6-dioxo-3-piperidyl)-1-methyl-indazol-6-yl]-3,3-difluoro-1-piperidyl]acetyl]-4-piperidyl]-7-isopropoxy-imidazo[1,2-a]pyridine-6-carboxamide]
10 to 100 nM	CC(C)Oc1cc2nc(C3CCN(C(=O)CC4(O)CCN(c5ccc6c(C7CCC(=O)NC7=O)nn(C)c6c5)CC4)CC3)cn2cc1C(=O)Nc1cccc(C(F)F)n1 (centres unmarked) [Example 79, N-[6-(difluoromethyl)-2-pyridyl]-2-[1-[2-[1-[3-(2,6-dioxo-3-piperidyl)-1-methyl-indazol-6-yl]-4-hydroxy-4-piperidyl]acetyl]-4-piperidyl]-7-isopropoxy-imidazo[1,2-a]pyridine-6-carboxamide]
10 to 100 nM	CC(C)Oc1cc2nc(C3CCN(C(=O)CN4CCC(c5ccc(C6CCC(=O)NC6=O)cc5F)CC4)CC3)cn2cc1C(=O)Nc1cccc(C(F)F)n1 (centres unmarked) [Example 80, N-[6-(difluoromethyl)-2-pyridyl]-2-[1-[2-[4-[4-(2,6-dioxo-3-piperidyl)-2-fluoro-phenyl]-1-piperidyl]acetyl]-4-piperidyl]-7-isopropoxy-imidazo[1,2-a]pyridine-6-carboxamide]
10 to 100 nM	CC(C)Oc1cc2nc(C3CCN(C(=O)CC4(O)CCN(c5c(F)cc(N[C@H]6CCC(=O)NC6=O)cc5Cl)CC4)CC3)cn2cc1C(=O)Nc1cccc(C(F)F)n1 [Example 82, 2-[1-[2-[1-[2-chloro-4-[[(3S)-2,6-dioxo-3-piperidyl]amino]-6-fluoro-phenyl]-4-hydroxy-4-piperidyl]acetyl]-4-piperidyl]-N-[6-(difluoromethyl)-2-pyridyl]-7-isopropoxy-imidazo[1,2-a]pyridine-6-carboxamide]
10 to 100 nM	CC(C)Oc1cc2nc(C3CCN(C(=O)CN4CCC(n5ccc(NC6CCC(=O)NC6=O)n5)CC4)CC3)cn2cc1C(=O)Nc1cccc(C(F)F)n1 (centres unmarked) [Example 83, N-[6-(difluoromethyl)-2-pyridyl]-2-[1-[2-[4-[3-[(2,6-dioxo-3-piperidyl)amino]pyrazol-1-yl]-1-piperidyl]acetyl]-4-piperidyl]-7-isopropoxy-imidazo[1,2-a]pyridine-6-carboxamide]
10 to 100 nM	CC(C)Oc1cc2nc(C3CCN(C(=O)CN4CCC(c5ccc(NC6CCC(=O)NC6=O)cn5)CC4)CC3)cn2cc1C(=O)Nc1cccc(C(F)F)n1 (centres unmarked) [Example 84, N-[6-(difluoromethyl)-2-pyridyl]-2-[1-[2-[4-[5-[(2,6-dioxo-3-piperidyl)amino]-2-pyridyl]-1-piperidyl]acetyl]-4-piperidyl]-7-isopropoxy-imidazo[1,2-a]pyridine-6-carboxamide]
10 to 100 nM	CC(C)Oc1cc2nc(C3CCN(C(=O)CN4CCC(c5cnc(NC6CCC(=O)NC6=O)nc5)CC4)CC3)cn2cc1C(=O)Nc1cccc(C(F)F)n1 (centres unmarked) [Example 85, N-[6-(difluoromethyl)-2-pyridyl]-2-[1-[2-[4-[2-[(2,6-dioxo-3-piperidyl)amino]pyrimidin-5-yl]-1-piperidyl]acetyl]-4-piperidyl]-7-isopropoxy-imidazo[1,2-a]pyridine-6-carboxamide]
10 to 100 nM	CC(C)Oc1cc2nc(C3CCN(C(=O)CN4CCC(c5ccc(NC6CCC(=O)NC6=O)nc5)CC4)CC3)cn2cc1C(=O)Nc1cccc(C(F)F)n1 (centres unmarked) [Example 86, N-[6-(difluoromethyl)-2-pyridyl]-2-[1-[2-[4-[6-[(2,6-dioxo-3-piperidyl)amino]-3-pyridyl]-1-piperidyl]acetyl]-4-piperidyl]-7-isopropoxy-imidazo[1,2-a]pyridine-6-carboxamide]
10 to 100 nM	CC(C)Oc1cc2nc(C3CCN(C(=O)CN4CCC(c5ccc(C6(F)CCC(=O)NC6=O)cc5)CC4)CC3)cn2cc1C(=O)Nc1cccc(C(F)F)n1 (centres unmarked) [Example 88, N-[6-(difluoromethyl)-2-pyridyl]-2-[1-[2-[4-[4-(3-fluoro-2,6-dioxo-3-piperidyl)phenyl]-1-piperidyl]acetyl]-4-piperidyl]-7-isopropoxy-imidazo[1,2-a]pyridine-6-carboxamide]
< 10 nM	CC(C)Oc1cc2nc(C3CCN(C(=O)CN4CCC(c5ccc(C6(F)CCC(=O)NC6=O)cc5)CC4)CC3)cn2cc1C(=O)Nc1cnn2cccnc12 (centres unmarked) [Example 89, 2-[1-[2-[4-[4-(3-fluoro-2,6-dioxo-3-piperidyl)phenyl]-1-piperidyl]acetyl]-4-piperidyl]-7-isopropoxy-N-pyrazolo[1,5-a]pyrimidin-3-yl-imidazo[1,2-a]pyridine-6-carboxamide]
10 to 100 nM	CC(C)Oc1cc2nc(C3CCN(C(=O)CC4CC5(C4)CN(c4ccc(C6CCC(=O)NC6=O)cc4)C5)CC3)cn2cc1C(=O)Nc1cccc(C(F)F)n1 (centres unmarked) [Example 90, N-[6-(difluoromethyl)-2-pyridyl]-2-[1-[2-[2-[4-(2,6-dioxo-3-piperidyl)phenyl]-2-azaspiro[3.3]heptan-6-yl]acetyl]-4-piperidyl]-7-isopropoxy-imidazo[1,2-a]pyridine-6-carboxamide]
10 to 100 nM	CC(C)Oc1cc2nc(C3CCN(C(=O)CC4CCN(c5ccc6c([C@H]7CCC(=O)NC7=O)nn(C)c6c5)CC4)CC3)cn2cc1C(=O)Nc1cccc(C(F)F)n1 [Example 91, (R)—N-(6-(difluoromethyl)pyridin-2-yl)-2-(1-(2-(1-(3-(2,6-dioxopiperidin-3-yl)-1-methyl-1H-indazol-6-yl)piperidin-4-yl)acetyl)piperidin-4-yl)-7-isopropoxyimidazo[1,2-a]pyridine-6-carboxamide]
10 to 100 nM	CC(C)Oc1cc2nc(C3CCN(C(=O)CC4CCN(c5ccc6c([C@@H]7CCC(=O)NC7=O)nn(C)c6c5)CC4)CC3)cn2cc1C(=O)Nc1cccc(C(F)F)n1 [Example 92, (S)—N-(6-(difluoromethyl)pyridin-2-yl)-2-(1-(2-(1-(3-(2,6-dioxopiperidin-3-yl)-1-methyl-1H-indazol-6-yl)piperidin-4-yl)acetyl)piperidin-4-yl)-7-isopropoxyimidazo[1,2-a]pyridine-6-carboxamide]
100 to 500 nM	CC(C)Oc1cc2nc(C3CCN(CC(=O)N4CCC(c5ccc(NC6CCC(=O)NC6=O)cc5)CC4)CC3)cn2cc1C(=O)Nc1ccccc1 (centres unmarked) [Example 93, 2-[1-[2-[4-[4-[(2,6-dioxo-3-piperidyl)amino]phenyl]-1-piperidyl]-2-oxo-ethyl]-4-piperidyl]-7-isopropoxy-N-phenyl-imidazo[1,2-a]pyridine-6-carboxamide]
100 to 500 nM	CC(C)Oc1cc2nc(C3CCN(CC(=O)N4CCC(c5ccc(NC6CCC(=O)NC6=O)cc5)CC4)CC3)cn2cc1C(=O)Nc1ccc(F)cc1F (centres unmarked) [Example 94, N-(2,4-difluorophenyl)-2-[1-[2-[4-[4-[(2,6-dioxo-3-piperidyl)amino]phenyl]-1-piperidyl]-2-oxo-ethyl]-4-piperidyl]-7-isopropoxy-imidazo[1,2-a]pyridine-6-carboxamide]
100 to 500 nM	CC(C)Oc1cc2nc(C3(C)CCN(CC(=O)N4CCC(c5ccc(NC6CCC(=O)NC6=O)cc5)CC4)CC3)cn2cc1C(=O)Nc1cccc(C(F)(F)F)n1 (centres unmarked) [Example 95, 2-[1-[2-[4-[4-[(2,6-dioxo-3-piperidyl)amino]phenyl]-1-piperidyl]-2-oxo-ethyl]-4-methyl-4-piperidyl]-7-isopropoxy-N-[6-(trifluoromethyl)-2-pyridyl]imidazo[1,2-a]pyridine-6-carboxamide]
10 to 100 nM	CC(C)Oc1cc2nc(C3CCN(CC(=O)N4CCC(c5cc(F)c(C6CCC(=O)NC6=O)cc5F)CC4)CC3)cn2cc1C(=O)Nc1cccc(C(F)F)n1 (centres unmarked) [Example 97, N-[6-(difluoromethyl)-2-pyridyl]-2-[1-[2-[4-[4-(2,6-dioxo-3-piperidyl)-2,5-difluoro-phenyl]-1-piperidyl]-2-oxo-ethyl]-4-piperidyl]-7-isopropoxy-imidazo[1,2-a]pyridine-6-carboxamide]
10 to 100 nM	CC(C)Oc1cc2nc(C3CCN(CC(=O)N4CCC(c5ccc(C6CCC(=O)NC6=O)cc5)CC4)CC3)cn2cc1C(=O)Nc1cccc(C(F)F)n1 (centres unmarked) [Example 99, N-[6-(difluoromethyl)-2-pyridyl]-2-[1-[2-[4-[4-(2,6-dioxo-3-piperidyl)phenyl]-1-piperidyl]-2-oxo-ethyl]-4-piperidyl]-7-isopropoxy-imidazo[1,2-a]pyridine-6-carboxamide]
10 to 100 nM	CC(C)Oc1cc2nc(C3CCN(CC(=O)N4CCC(c5cc(F)c(C6CCC(=O)NC6=O)cc5F)CC4)CC3)cn2cc1C(=O)Nc1cnn2cccnc12 (centres unmarked) [Example 100, 2-[1-[2-[4-[4-(2,6-dioxo-3-piperidyl)-2,5-difluoro-phenyl]-1-piperidyl]-2-oxo-ethyl]-4-piperidyl]-7-isopropoxy-N-pyrazolo[1,5-a]pyrimidin-3-yl-imidazo[1,2-a]pyridine-6-carboxamide]
